Source: PubChem BioAssay (NCI)
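1) Cells in 96-well plates. 2) Compound, 48 h, 5 concentrations. 3) Linear interpolation between surrounding doses. 4) Unreached endpoint = highest concentration. TGI: concentration producing complete growth inhibition.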

Key:
Assay in all cases: DTP human tumour cell line panel, 48 h
[1] = test system: MDA-N
[2] = test system: KM12 colon
[3] = test system: COLO 205 colon
[4] = test system: LOX IMVI melanoma
[5] = test system: T-47D breast
[6] = test system: SK-MEL-2 melanoma
[7] = test system: HS 578T breast
[8] = test system: SF-539 CNS
[9] = test system: MALME-3M melanoma
[10] = test system: OVCAR-4 ovarian
[11] = test system: NCI-H460 lung
[12] = test system: MOLT-4 leukemia
[13] = test system: M14 melanoma
[14] = test system: NCI-H226 lung
[15] = test system: SNB-19 CNS
[16] = test system: HOP-62 NSCLC
[17] = test system: HCT-15 colon
[18] = test system: IGROV1 ovarian
[19] = test system: TK-10 renal
[20] = test system: UO-31 renal
[21] = test system: UACC-62 melanoma
[22] = test system: U251 CNS
[23] = test system: SR leukemia
[24] = test system: SF-295 CNS
[25] = test system: UACC-257 melanoma
[26] = test system: HL-60(TB) leukemia
[27] = test system: OVCAR-3 ovarian
[28] = test system: PC-3 prostate
[29] = test system: OVCAR-5 ovarian
[30] = test system: RXF 393 renal
[31] = test system: SF-268 CNS
[32] = test system: RPMI-8226 leukemia
[33] = test system: SK-MEL-5 melanoma
[34] = test system: 786-0 renal
[35] = test system: K-562 leukemia
[36] = test system: MCF7 breast
[37] = test system: NCI-H522 lung
[38] = test system: NCI/ADR-RES ovarian
[39] = test system: SNB-75 CNS
[40] = test system: CAKI-1 renal
[41] = test system: MDA-MB-435
[42] = test system: A549 NSCLC
[43] = test system: A498 renal
[44] = test system: NCI-H23 lung
[45] = test system: HCT-116 colon
[46] = test system: BT-549 breast
[47] = test system: SK-MEL-28 melanoma
[48] = test system: HT29 colon
[49] = test system: DU-145 prostate
[50] = test system: SN12C renal
[51] = test system: ACHN renal
[52] = test system: EKVX NSCLC
[53] = test system: SW-620 colon
[54] = test system: HOP-92 NSCLC
[55] = test system: MDA-MB-231 breast
[56] = test system: OVCAR-8 ovarian
[57] = test system: SK-OV-3 ovarian
[58] = test system: CCRF-CEM leukemia
[59] = test system: HCC-2998 colon

O=C(CSc1nc2ccccc2c2ccccc12)c1ccccc1
TGI [1]: > 100 µM
TGI [2]: > 100 µM
TGI [3]: > 100 µM
TGI [4]: > 100 µM
TGI [5]: > 100 µM
TGI [6]: > 100 µM
TGI [7]: 0.0967 µM
TGI [8]: > 100 µM
TGI [9]: > 100 µM
TGI [10]: > 100 µM
TGI [11]: > 100 µM
TGI [12]: > 100 µM
TGI [13]: > 100 µM
TGI [14]: > 100 µM
TGI [15]: > 100 µM
TGI [16]: > 100 µM
TGI [17]: > 100 µM
TGI [18]: > 100 µM
TGI [19]: > 100 µM
TGI [20]: > 100 µM
TGI [21]: > 100 µM
TGI [22]: > 100 µM
TGI [23]: > 100 µM
TGI [24]: > 100 µM
TGI [25]: > 100 µM
TGI [26]: > 100 µM
TGI [27]: > 100 µM
TGI [28]: > 100 µM
TGI [29]: > 100 µM
TGI [30]: > 100 µM
TGI [31]: > 100 µM
TGI [32]: > 100 µM
TGI [33]: > 100 µM
TGI [34]: > 100 µM
TGI [35]: > 100 µM
TGI [36]: > 100 µM
TGI [37]: > 100 µM
TGI [38]: > 100 µM
TGI [39]: 57.9 µM
TGI [40]: > 100 µM
TGI [41]: > 100 µM
TGI [42]: > 100 µM
TGI [43]: > 100 µM
TGI [44]: > 100 µM
TGI [45]: > 100 µM
TGI [46]: > 100 µM
TGI [47]: > 100 µM
TGI [48]: > 100 µM
TGI [49]: > 100 µM
TGI [50]: > 100 µM
TGI [51]: > 100 µM
TGI [52]: > 100 µM
TGI [53]: > 100 µM
TGI [54]: > 100 µM
TGI [55]: > 100 µM
TGI [56]: > 100 µM

CC#CC#C/C=C1/O[C@]2(CCC(OC(=O)CC(C)C)CO2)[C@@H]2O[C@H]12 (some centres not stated)
TGI [1]: 54.3 µM
TGI [2]: > 100 µM
TGI [4]: 35.9 µM
TGI [5]: 48.3 µM
TGI [6]: 52.5 µM
TGI [7]: > 100 µM
TGI [9]: 47.7 µM
TGI [10]: > 100 µM
TGI [11]: > 100 µM
TGI [12]: 54.6 µM
TGI [13]: 47.7 µM
TGI [57]: > 100 µM
TGI [15]: > 100 µM
TGI [16]: > 100 µM
TGI [17]: 53.1 µM
TGI [18]: > 100 µM
TGI [19]: 61.3 µM
TGI [20]: 36.5 µM
TGI [21]: 66.6 µM
TGI [22]: 54.6 µM
TGI [23]: > 100 µM
TGI [25]: > 100 µM
TGI [26]: 42.9 µM
TGI [27]: 52.3 µM
TGI [28]: 72.5 µM
TGI [29]: 72.9 µM
TGI [30]: 42.2 µM
TGI [31]: 54.1 µM
TGI [32]: 50.3 µM
TGI [34]: 49.3 µM
TGI [35]: > 100 µM
TGI [36]: > 100 µM
TGI [37]: 37.4 µM
TGI [38]: 64.4 µM
TGI [39]: > 100 µM
TGI [40]: 34.7 µM
TGI [41]: 60.4 µM
TGI [42]: > 100 µM
TGI [43]: > 100 µM
TGI [58]: 27.5 µM
TGI [44]: 60 µM
TGI [45]: 33.3 µM
TGI [46]: 56.3 µM
TGI [59]: 37.5 µM
TGI [48]: 35.4 µM
TGI [49]: > 100 µM
TGI [50]: 41.2 µM
TGI [51]: 44.7 µM
TGI [52]: 84.3 µM
TGI [53]: 43.7 µM
TGI [54]: 66 µM
TGI [55]: 62.7 µM
TGI [56]: > 100 µM

COCOc1cc(OCOC)cc(C(=O)Oc2ccccc2)c1
TGI [1]: > 100 µM
TGI [2]: > 100 µM
TGI [3]: > 100 µM
TGI [4]: > 100 µM
TGI [5]: > 100 µM
TGI [6]: > 100 µM
TGI [7]: > 100 µM
TGI [8]: > 100 µM
TGI [9]: > 100 µM
TGI [10]: > 100 µM
TGI [11]: > 100 µM
TGI [12]: > 100 µM
TGI [13]: > 100 µM
TGI [14]: > 100 µM
TGI [57]: > 100 µM
TGI [15]: > 100 µM
TGI [16]: > 100 µM
TGI [17]: > 100 µM
TGI [18]: > 100 µM
TGI [19]: > 100 µM
TGI [20]: > 100 µM
TGI [21]: > 100 µM
TGI [22]: > 100 µM
TGI [23]: > 100 µM
TGI [24]: > 100 µM
TGI [25]: > 100 µM
TGI [26]: > 100 µM
TGI [27]: > 100 µM
TGI [28]: > 100 µM
TGI [29]: > 100 µM
TGI [30]: > 100 µM
TGI [31]: > 100 µM
TGI [32]: > 100 µM
TGI [33]: > 100 µM
TGI [34]: > 100 µM
TGI [35]: > 100 µM
TGI [36]: > 100 µM
TGI [37]: > 100 µM
TGI [38]: > 100 µM
TGI [39]: > 100 µM
TGI [40]: > 100 µM
TGI [41]: > 100 µM
TGI [42]: > 100 µM
TGI [43]: > 100 µM
TGI [44]: > 100 µM
TGI [45]: > 100 µM
TGI [46]: > 100 µM
TGI [59]: > 100 µM
TGI [47]: > 100 µM
TGI [48]: > 100 µM
TGI [49]: > 100 µM
TGI [50]: > 100 µM
TGI [51]: > 100 µM
TGI [52]: > 100 µM
TGI [53]: > 100 µM
TGI [54]: > 100 µM
TGI [55]: > 100 µM
TGI [56]: > 100 µM
